# Measured values from patent US7601868B2, “Amine derivative” (Takeda Pharmaceutical Company Limited, priority 2003, dated 2009).
row,melting point [°C],SMILES
1,116 to 117,"O=C(NCCc1ccc(CN2CCCC2)cc1)N1CCC(c2ccc(Cl)cc2)CC1 [Example 1, 4-(4-chlorophenyl)-N-{2-[4-(1-pyrrolidinylmethyl)phenyl]ethyl}-1-piperidinecarboxamide]"
2,91 to 93,"CCCCCc1ccc(C(=O)NCCc2ccc(CN3CCCC3)cc2)cc1 [Example 3, 4-pentyl-N-{2-[4-(1-pyrrolidinylmethyl)phenyl]ethyl}benzamide]"
3,115 to 117,"CCCC(=O)Cc1ccc(C(=O)NCCc2ccc(CN3CCCC3)cc2)cc1 [Example 4, 4-(2-oxopentyl)-N-{2-[4-(1-pyrrolidinylmethyl)phenyl]ethyl}benzamide]"
4,80 to 82,"CC(CNC(=O)c1ccc(Br)cc1F)c1ccc(CN2CCCC2)cc1 (stereo not shown) [Example 5, 4-bromo-2-fluoro-N-{2-[4-(1-pyrrolidinylmethyl)phenyl]propyl}benzamide]"
5,119 to 121,"CC(CNC(=O)c1ccc(-c2ccc(Cl)cc2)cc1F)c1ccc(CN2CCCC2)cc1 (stereo not shown) [Example 6, 4′-chloro-3-fluoro-N-{2-[4-(1-pyrrolidinylmethyl)phenyl]propyl}[1,1′-biphenyl]-4-carboxamide]"
6,91 to 92,"CCCCCc1ccc(C(=O)NCC(C)c2ccc(CN3CCCC3)cc2)cc1 (stereo not shown) [Example 9, 4-pentyl-N-{2-[4-(1-pyrrolidinylmethyl)phenyl]propyl}benzamide]"
7,90 to 92,"CCC(c1ccc(CCNC(=O)c2ccc(Br)cc2)cc1)N1CCCC1 (stereo not shown) [Example 32, 4-bromo-N-(2-{4-[1-(1-pyrrolidinyl)propyl]phenyl}ethyl)benzamide]"
8,76 to 77,"CCCCCc1ccc(C(=O)NCCc2ccc(C(C)N3CCCC3)cc2)cc1 (stereo not shown) [Example 38, 4-pentyl-N-(2-{4-[1-(1-pyrrolidinyl)ethyl]phenyl}ethyl)benzamide]"
9,143 to 145,"CN1CCCC1c1ccc(CCNC(=O)c2ccc(OCC3CC3)cc2)cc1 (stereo not shown) [Example 138, 4-cyclopropylmethoxy-N-{2-[4-(1-methyl-2-pyrrolidinyl)phenyl]ethyl}benzamide]"
10,90 to 92,"O=C(NCCc1ccc(CN2CCCC2)cc1)c1ccc(OCC2CC2)cc1F [Example 140, 4-cyclopropylmethoxy-2-fluoro-N-{2-[4-(1-pyrrolidinylmethyl)phenyl]ethyl}benzamide]"
11,66 to 68,"O=C(NCCc1ccc(CN2CCCC2)cc1)c1ccc(OCCC2CC2)cc1F [Example 141, 4-(2-cyclopropylethoxy)-2-fluoro-N-{2-[4-(1-pyrrolidinylmethyl)phenyl]ethyl}benzamide]"
12,107 to 109,"O=C(Cc1ccc(CN2CCCC2)cc1)NCc1ccc(Br)cc1 [Reference Example 38, N-(4-bromobenzyl)-2-[4-(1-pyrrolidinylmethyl)phenyl]acetamide]"
13,137 to 138,"O=C(CCc1ccc(CN2CCCC2)cc1)Nc1ccc(Br)cc1 [Reference Example 41, N-(4-bromophenyl)-3-[4-(1-pyrrolidinylmethyl)phenyl]propanamide]"
14,143 to 145,"O=C(COc1ccc(CN2CCCC2)cc1)Nc1ccc(Br)cc1 [Reference Example 46, N-(4-bromophenyl)-2-[4-(1-pyrrolidinylmethyl)phenoxy]acetamide]"
15,151 to 153,"O=C(Cc1ccc(CN2CCCC2)cc1)NCc1ccc(-c2ccc(Cl)cc2)cc1 [compound 39, N-[(4′-chloro-1,1′-biphenyl-4-yl)methyl]-2-[4-(1-pyrrolidinylmethyl)phenyl]acetamide]"
16,104 to 105,"CCCCCc1ccc(NC(=O)CCc2ccc(CN3CCCC3)cc2)cc1 [compound 40, N-(4-pentylphenyl)-3-[4-(1-pyrrolidinylmethyl)phenyl]propanamide]"
17,179 to 181,"O=C(CCc1ccc(CN2CCCC2)cc1)Nc1ccc(-c2ccc(Cl)cc2)cc1 [compound 42, N-(4′-chloro-1,1′-biphenyl-4-yl)-3-[4-(1-pyrrolidinylmethyl)phenyl]propanamide]"
18,187 to 189,"O=C(NCCc1ccc(-c2ccc(Cl)cc2)cc1)c1ccc(CN2CCCC2)cc1 [compound 45, N-[2-(4′-chloro-1,1′-biphenyl-4-yl)ethyl]-4-(1-pyrrolidinylmethyl)benzamide]"

# The next lines start with the molecule.
row,SMILES,melting point [°C]
1,"CC(CNC(=O)c1ccc(-c2ccc(Cl)cc2)cc1)c1ccc(CN2CCCC2)cc1 (stereo not shown) [Example 8, 4′-chloro-N-{2-[4-(1-pyrrolidinylmethyl)phenyl]propyl}[1,1′-biphenyl]-4-carboxamide]",156 to 157
2,"CC(c1ccc(CCNC(=O)c2ccc(Br)cc2)cc1)N1CCCC1 (stereo not shown) [Example 10, 4-bromo-N-(2-{4-[1-(1-pyrrolidinyl)ethyl]phenyl}ethyl)benzamide]",124 to 126
3,"CC(c1ccc(CCNC(=O)c2ccc(-c3ccc(Cl)cc3)cc2)cc1)N1CCCC1 (stereo not shown) [Example 11, 4′-chloro-N-(2-{4-[1-(1-pyrrolidinyl)ethyl]phenyl}ethyl)[1,1′-biphenyl]-4-carboxamide]",152 to 153
4,"COc1ccc(-c2ccc(C(=O)NCCc3ccc(C(C)N4CCCC4)cc3)cc2)cc1 (stereo not shown) [Example 12, 4′-methoxy-N-(2-{4-[1-(1-pyrrolidinyl)ethyl]phenyl}ethyl)[1,1′-biphenyl]-4-carboxamide]",163 to 165
5,"CC(c1ccc(CCNC(=O)c2ccc(-c3ccc(F)cc3)cc2)cc1)N1CCCC1 (stereo not shown) [Example 13, 4′-fluoro-N-(2-{4-[1-(1-pyrrolidinyl)ethyl]phenyl}ethyl)[1,1′-biphenyl]-4-carboxamide]",141 to 143
6,"Cc1ccc(-c2ccc(C(=O)NCCc3ccc(C(C)N4CCCC4)cc3)cc2)cc1 (stereo not shown) [Example 14, 4′-methyl-N-(2-{4-[1-(1-pyrrolidinyl)ethyl]phenyl}ethyl)[1,1′-biphenyl]-4-carboxamide]",160 to 163
7,"CC(c1ccc(CCNC(=O)c2ccc(-c3ccc(C(F)(F)F)cc3)cc2)cc1)N1CCCC1 (stereo not shown) [Example 15, N-(2-{4-[1-(1-pyrrolidinyl)ethyl]phenyl}ethyl)-4′-(trifluoromethyl)[1,1′-biphenyl]-4-carboxamide]",149 to 151
8,"CC(c1ccc(CCNC(=O)c2ccc(-c3ccc(OC(F)(F)F)cc3)cc2)cc1)N1CCCC1 (stereo not shown) [Example 16, N-(2-{4-[1-(1-pyrrolidinyl)ethyl]phenyl}ethyl)-4′-(trifluoromethoxy)[1,1′-biphenyl]-4-carboxamide]",135 to 137
9,"CC(c1ccc(CCNC(=O)c2ccc(-c3ccccc3)cc2)cc1)N1CCCC1 (stereo not shown) [Example 31, N-(2-{4-[1-(1-pyrrolidinyl)ethyl]phenyl}ethyl)[1,1′-biphenyl]-4-carboxamide]",136 to 138
10,"CCC(c1ccc(CCNC(=O)c2ccc(-c3ccc(Cl)cc3)cc2)cc1)N1CCCC1 (stereo not shown) [Example 33, 4′-chloro-N-(2-{4-[1-(1-pyrrolidinyl)propyl]phenyl}ethyl)[1,1′-biphenyl]-4-carboxamide]",151 to 153
11,"CC(C)C(c1ccc(CCNC(=O)c2ccc(-c3ccc(Cl)cc3)cc2)cc1)N1CCCC1 (stereo not shown) [Example 36, 4′-chloro-N-(2-{4-[2-methyl-1-(1-pyrrolidinyl)propyl]phenyl}ethyl)[1,1′-biphenyl]-4-carboxamide]",143 to 145
12,"CC(c1ccc(CCNC(=O)c2ccc(-c3ccc(Cl)cc3)cc2)cc1)N1CCSCC1 (stereo not shown) [Example 37, 4′-chloro-N-(2-{4-[1-(4-thiomorpholinyl)ethyl]phenyl}ethyl)[1,1′-biphenyl]-4-carboxamide]",168 to 169
13,"CN1CCCC1c1ccc(CCNC(=O)c2ccc(-c3ccc(Cl)cc3)cc2)cc1 (stereo not shown) [Example 137, 4′-chloro-N-{2-[4-(1-methyl-2-pyrrolidinyl)phenyl]ethyl}[1,1′-biphenyl]-4-carboxamide]",169 to 171
14,"COc1ccc(-c2ccc(C(=O)NCCc3ccc(C4CCCN4C)cc3)cc2)cc1 (stereo not shown) [Example 139, 4′-methoxy-N-{2-[4-(1-methyl-2-pyrrolidinyl)phenyl]ethyl}[1,1′-biphenyl]-4-carboxamide]",165 to 167
15,"O=C(/C=C/c1ccc(CN2CCCC2)cc1)Nc1ccc(Br)cc1 [Reference Example 43, (E)-N-(4-bromophenyl)-3-[4-(1-pyrrolidinylmethyl)phenyl]-2-propenamide]",184 to 186
16,"O=C(/C=C/c1ccc(CN2CCCC2)cc1)Nc1ccc(-c2ccc(Cl)cc2)cc1 [compound 44, (E)-N-(4′-chloro-1,1′-biphenyl-4-yl)-3-[4-(1-pyrrolidinylmethyl)phenyl]-2-propenamide]",207 to 209
